The record followed here is patent US8349883B2, “Hydroxamate-based inhibitors of deacetylases B” (Novartis AG, priority 2008, dated 2013).

In one test the target is T1, HDAC-1 (Homo sapiens, UniProt Q13547).
T1 construct: made in house; host or cells: Sf9 or Sf21 insect cells (baculovirus, donor vector pFB-GSTX3)
Kind of test: HDAC inhibition assay (purified GST-HDAC protein). Type of test: biochemical.

A further test has as its system HCT116. The test can be described thus: HCT116 IC50. Type of test: cell-based. Particulars: Homo sapiens, HCT-116.

T1 sequence (Q13547 whole entry, species assumed): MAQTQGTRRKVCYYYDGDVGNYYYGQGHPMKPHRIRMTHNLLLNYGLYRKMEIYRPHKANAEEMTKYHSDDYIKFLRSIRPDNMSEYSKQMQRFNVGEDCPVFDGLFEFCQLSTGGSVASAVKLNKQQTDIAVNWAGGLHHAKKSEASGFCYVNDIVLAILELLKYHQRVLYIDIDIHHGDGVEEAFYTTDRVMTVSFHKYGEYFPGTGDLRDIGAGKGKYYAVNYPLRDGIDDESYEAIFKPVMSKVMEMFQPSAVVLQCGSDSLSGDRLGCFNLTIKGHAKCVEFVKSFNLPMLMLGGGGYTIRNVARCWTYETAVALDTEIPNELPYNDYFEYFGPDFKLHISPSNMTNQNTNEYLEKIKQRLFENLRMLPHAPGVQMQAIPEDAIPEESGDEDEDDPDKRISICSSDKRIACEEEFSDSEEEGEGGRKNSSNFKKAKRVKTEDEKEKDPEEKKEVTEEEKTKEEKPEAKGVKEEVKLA

For orientation: IC50 means the point on the concentration scale where inhibition reaches its midpoint. High values mean weaker potency in that assay, low ones greater potency in that assay. As to `O=C(/C=C/c1ccc([C@@H]2CCCN2CCc2cn(CCOCc3ccccc3)nn2)cc1)NO` [Compound 76, (E)-3-[4-((S)-1-{2-[1-(2-Benzyloxy-ethyl)-1H-[1,2,3]triazol-4-yl]-ethyl}-pyrrolidin-2-yl)-phenyl]N-hydroxy-acrylamide], the concentration for half-maximal inhibition (IC50) against HDAC-1 is 31 nM; in the test with HCT116, 210 nM.
With `Cc1cc(C)n(CCN2CCC[C@H]2c2ccc(/C=C/C(=O)NO)cc2)n1` [Compound 66, (E)-3-(4-{(S)-1-[2-(3,5-Dimethyl-pyrazol-1-yl)-ethyl]-pyrrolidin-2-yl}-phenyl)-N-hydroxy-acrylamide], the IC50 against HDAC-1 worked out at 28 nM; with HCT116, 61 nM.
The matching figures for `COc1ccc2[nH]c(C)c(CCN3CCCC3c3ccc(/C=C/C(=O)NO)cc3)c2c1` (stereo not shown) [Compound 6, (E)-N-Hydroxy-3-(4-{1-[2-(5-methoxy-2-methyl-1H-indol-3-yl)-ethyl]-pyrrolidin-2-yl}-phenyl)-acrylamide]: 2 nM and 1.2 nM.
For `Cc1nn(CCN2CCC[C@H]2c2ccc(/C=C/C(=O)NO)cc2)c(C)c1Br` [Compound 69, (E)-3-(4-{(S)-1-[2-(4-Bromo-3,5-dimethyl-pyrazol-1-yl)-ethyl]-pyrrolidin-2-yl}-phenyl)-N-hydroxy-acrylamide] the same measures were 25 nM and 170 nM.
The matching figures for `Cc1[nH]c2ccccc2c1CCN1CCCC1c1ccc(/C=C/C(=O)NO)cc1` (stereo not shown) [Compound 1, (E)-N-Hydroxy-3-(4-{1-[2-(2-methyl-1H-indol-3-yl)-ethyl]-pyrrolidin-2-yl}-phenyl)-acrylamide]: 3 nM and 1 nM.
For `O=C(/C=C/c1cc(F)c([C@@H]2CCCN2CCc2cnn3ccccc23)c(F)c1)NO` [Compound 94, (E)-3-{3,5-Difluoro-4-[(S)-1-(2-pyrazolo[1,5-a]pyridin-3-yl-ethyl)-pyrrolidin-2-yl]-phenyl}-N-hydroxy-acrylamide], the values for the IC50 against HDAC-1 and in the test on HCT116 were 1.4 nM and 5 nM, respectively.
With `Cc1nn(C(C)(C)C)c(C)c1CCN1CCC[C@H]1c1ccc(/C=C/C(=O)NO)cc1` [Compound 61, (E)-3-(4-{(S)-1-[2-(1-tert-Butyl-3,5-dimethyl-1H-pyrazol-4-yl)-ethyl]-pyrrolidin-2-yl}-phenyl)-N-hydroxy-acrylamide], the IC50 on HDAC-1 amounted to 7 nM; in the test with HCT116, 8 nM.
For `Cc1ccnn1CCN1CCC[C@H]1c1ccc(/C=C/C(=O)NO)cc1` [Compound 72, (E)-N-Hydroxy-3-(4-{(S)-1-[2-(5-methyl-pyrazol-1-yl)-ethyl]-pyrrolidin-2-yl}-phenyl)-acrylamide] the same measures were 19 nM and 31 nM.
The matching figures for `O=C(/C=C/c1ccc([C@@H]2CCCN2CCc2cnn3ccccc23)c(Cl)c1)NO` [Compound 92, (E)-3-{3-Chloro-4-[(S)-1-(2-pyrazolo[1,5-a]pyridin-3-yl-ethyl)-pyrrolidin-2-yl]-phenyl}-N-hydroxy-acrylamide]: 4 nM and 3 nM.
The matching figures for `Cc1noc(-c2ccccc2)c1CCN1CCC[C@H]1c1ccc(/C=C/C(=O)NO)cc1` [Compound 56, (E)-N-Hydroxy-3-(4-{(S)-1-[2-(3-methyl-5-phenyl-isoxazol-4-yl)-ethyl]-pyrrolidin-2-yl}-phenyl)-acrylamide]: 1.7 nM and 5 nM.
As to `O=C(/C=C/c1ccc([C@@H]2CCCN2CCc2c(-c3cnccn3)nn3ccccc23)cc1)NO` [Compound 49, (E)-N-Hydroxy-3-(4-{(S)-1-[2-(2-pyrazin-2-yl-pyrazolo[1,5-a]pyridin-3-yl)-ethyl]-pyrrolidin-2-yl}-phenyl)-acrylamide], the IC50 against HDAC-1 and in the test on HCT116 was 3 nM throughout.
Consider `CC(C)(C)c1[nH]nnc1CCN1CCC[C@H]1c1ccc(/C=C/C(=O)NO)cc1` [Compound 108, (E)-3-(4-{(S)-1-[2-(5-tert-Butyl-1H-[1,2,3]triazol-4-yl)-ethyl]-pyrrolidin-2-yl}-phenyl)-N-hydroxy-acrylamide], for which the half-maximal inhibitory concentration (IC50) was 7 nM on HDAC-1 and 10 nM in the test with HCT116.
The matching figures for `O=C(/C=C/c1ccc([C@@H]2CCCN2CCn2cc(Br)cn2)cc1)NO` [Compound 65, (E)-3-(4-{(S)-1-[2-(4-Bromo-pyrazol-1-yl)-ethyl]-pyrrolidin-2-yl}-phenyl)-N-hydroxy-acrylamide]: 35 nM and 180 nM.
With `CC(C)n1nnc(CCN2CCC[C@H]2c2ccc(/C=C/C(=O)NO)cc2)n1` [Compound 101, (E)-N-Hydroxy-3-(4-{(S)-1-[2-(2-isopropyl-2H-tetrazol-5-yl)-ethyl]-pyrrolidin-2-yl}-phenyl)-acrylamide], the values for the half-maximal inhibitory concentration (IC50) on HDAC-1 and in the test with HCT116 were 58 nM and 160 nM, respectively.
The matching figures for `O=C(/C=C/c1ccc(C2CCCN2CC(O)c2ccccc2)cc1)NO` (stereo not shown) [Compound 28, (E)-N-Hydroxy-3-{4-[1-(2-hydroxy-2-phenyl-ethyl)-pyrrolidin-2-yl]-phenyl}-acrylamide]: 25 nM and 85 nM.
For `O=C(CCc1ccc([C@H]2CCCN2CCc2cnn3ccccc23)cc1)NO` [Compound 121, N-Hydroxy-3-{4-[(R)-1-(2-pyrazolo[1,5-a]pyridin-3-yl-ethyl)-pyrrolidin-2-yl]-phenyl}-propionamide] the same measures were 31 nM and 180 nM.
As to `Cc1nn(C)c(C)c1CCN1CCC[C@H]1c1ccc(/C=C/C(=O)NO)cc1` [Compound 60, (E)-N-Hydroxy-3-(4-{(S)-1-[2-(1,3,5-trimethyl-1H-pyrazol-4-yl)-ethyl]-pyrrolidin-2-yl}-phenyl)-acrylamide], the figures for the 50% inhibitory concentration (IC50) against HDAC-1 and in the test with HCT116 were 1.8 nM and 4 nM, respectively.
Consider `O=C(/C=C/c1ccc([C@@H]2CCCN2CCS(=O)(=O)c2ccccc2)cc1)NO` [Compound 98, (E)-3-{4-[(S)-1-(2-Benzenesulfonyl-ethyl)-pyrrolidin-2-yl]-phenyl}-N-hydroxy-acrylamide], for which the concentration for half-maximal inhibition (IC50) against HDAC-1 was 36 nM; in the test on HCT116 it was 50 nM.
For `Cc1[nH]nc(C(C)(C)C)c1CCN1CCC[C@H]1c1ccc(/C=C/C(=O)NO)cc1` [Compound 100, (E)-3-(4-{(S)-1-[2-(3-tert-Butyl-5-methyl-1H-pyrazol-4-yl)-ethyl]-pyrrolidin-2-yl}-phenyl)-N-hydroxy-acrylamide], the IC50 against HDAC-1 came out at 1 nM; with HCT116 it was 0.5 nM.
For `Cc1nn(CC2CC2)c(C)c1CCN1CCC[C@H]1c1ccc(/C=C/C(=O)NO)cc1` [Compound 62, (E)-3-(4-{(S)-1-[2-(1-Cyclopropylmethyl-3,5-dimethyl-1H-pyrazol-4-yl)-ethyl]-pyrrolidin-2-yl}-phenyl)-N-hydroxy-acrylamide] the same measures were 2 nM and 2 nM.
